Source: patent publication US20220192179A1, “BIOMIMETIC ICE-INHIBITING MATERIAL AND CRYOPRESERVATION SOLUTION COMPRISING SAME” (priority 2019, published 2022)
Peptide text beside a SMILES is read from it.

How the values were obtained:
[1] = Ice topography (DIS) observation and thermal hysteresis (TH) measurement, nanoliter osmometer; type: physicochemical; details: deionized aqueous solution; for thermal hysteresis (TH): nanoliter osmometer; for modification effect on the topography of ice crystals (DIS observation): supercooling degree of −0.1 °C
Experimental: DIS observation and TH measurement were performed by using a nanoliter osmometer. A capillary was first melt with the outer flame of a alcohol burner, and simultaneously stretched to produce a capillary with a very fine pore size, and the capillary was then linked to a microsyringe; an immersion oil with higher viscosity was injected into a disk with micron-sized holes, and an aqueous solution in which the material was dissolved was injected into the microholes by using a microsyringe; the droplet was quickly frozen by regulating the temperature, and then slowly heated to give a single crystal ice, the single crystal ice was slowly cooled at the precision of 0.01° C., and the DIS observation and TH test were performed by using a microscope provided with a high-speed camera.

[2] = Ice recrystallization inhibition (IRI) activity, splat-freezing method; type: physicochemical; details: for MLGS (%) relative to that of DPBS, compared with the unbound components: 20 μL DPBS solution, same concentration
Experimental: The IRI activity was assessed using “splat-freezing method”, wherein a sample was dissolved and dispersed into a DPBS solution, and 10-30 μL of the resulting solution was added dropwise onto the surface of a clean silicon disk pre-cooled at -60° C. at a height of no less than 1.0 m; the solution was slowly heated to -6° C. at a speed of 10° C. ·min^−1 by using a hot-cold stage, and was annealed for 30 min at this temperature; the sizes of ice crystals were observed and recorded by using a polarizing microscope and a high-speed camera. The hot-cold stage was sealed to ensure that the internal humidity was about 50%.
The IRI activity was assessed using “splat-freezing method”, wherein a sample was dissolved and dispersed into a DPBS solution, and 10-30 μL of the resultant solution was added dropwise onto the surface of a clean silicon disk precooled at −60° C. at a height of no less than 1.0 m; the solution was slowly heated to −6° C. at a speed of 10° C./min by using a hot-cold stage, and was annealed for 30 min at this temperature; the sizes of ice crystals were observed and recorded by using a polarizing microscope and a high-speed camera. The hot-cold stage was sealed to ensure that the internal humidity was about 50%.
The ice recrystallization inhibition (IRI) activity was assessed using “splat-freezing method”, wherein the two PVAs were separately dissolved and dispersed into DPBS solutions, and 10-30 μL of the resulting solution was added dropwise onto the surface of a clean silicon disk pre-cooled at −60° C. at a height of no less than 1.0 m; the solution was slowly heated to −6° C. at a speed of 10° C.·min^−1 by using a hot-cold stage, and was annealed for 30 min at this temperature; the sizes of ice crystals were observed and recorded by using a polarizing microscope and a high-speed camera. The hot-cold stage was sealed to ensure that the internal humidity was about 50%.

Compound	thermal hysteresis (TH) [1]	modification effect on the topography of ice crystals (DIS observation) [1]	MLGS (%) relative to that of DPBS, compared with the unbound components [2]	ability to inhibit the growth of ice crystals ([2]; result in words)	modification effect on the topography of ice crystals (DIS observation) ([1]; listed as compound of formula (9) where R is —CH3)	modification effect on the topography of ice crystals (DIS observation) ([1]; listed as compound of formula (9) where R is —CH2CH3)
CC(O)C(NC(=O)[C@@H](O)[C@H](O)[C@@H](O)[C@@H](O)CO)C(=O)O (stereo partly drawn) [GDL-L-Thr]	No TH was determined	weak modification effect on the topography of ice crystals	obviously smaller than those of the DPBS solutions of GDL and amino acids at the same concentration	good capability of inhibiting the growth of ice crystals		
GDL-L-Ser			obviously smaller than those of the DPBS solutions of GDL and amino acids at the same concentration			
CNCC(=O)N(C)CC(=O)N(C)CC(=O)N(C)CC(=O)N(C)CC(=O)N(C)CC(N)=O [peptoid where R was —CH3]	no TH	rather obvious modification effects on the topography of ice crystals			excellent modification effect on the topography of ice crystals	
GDL-L-Val			obviously smaller than those of the DPBS solutions of GDL and amino acids at the same concentration			
NC(=O)CN(CCC(=O)O)C(=O)CN(CCC(=O)O)C(=O)CN(CCC(=O)O)C(=O)CN(CCC(=O)O)C(=O)CN(CCC(=O)O)C(=O)CNCCC(=O)O [peptoid where R was —CH2CH2COOH]		no modification effect on the topography of ice crystals				
CCNCC(=O)N(CC)CC(=O)N(CC)CC(=O)N(CC)CC(=O)N(CC)CC(=O)N(CC)CC(N)=O [peptoid where R was —CH2CH3]	no TH	rather obvious modification effects on the topography of ice crystals				excellent modification effect on the topography of ice crystals
C[C@@H](O)[C@H](N)C(=O)N[C@@H](CCCNC(=N)N)C(=O)O [TR, L-Thr-L-Arg] (H-Thr-Arg-OH)	No TH was determined	weak modification effect on the topography of ice crystals	obviously smaller than that of the DPBS solutions of arginine and threonine at the same concentration			
